Assays:
barnyardgrass (Ec) [1] = assay: Test Example 1: herbicidal effects by paddy field soil treatment; assay type: in vivo; conditions: 100 g of the active ingredient per 10 ares, 21st day after the application, index 0-5 of Table 47;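 also: grade of growth control; 5 = at least 90%; 4 = 70 to 90%; 3 = 50 to 70%; 2 = 30 to 50%; 1 = 10 to 30%; 0 = under 10%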
Outline: (§1)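 Scoring of herbicidal effect came 21 days after application of 100 g active ingredient per 10 ares to flooded (3 cm) paddy-soil pots sown with barnyardgrass, monochoria and bulrush, kept in a greenhouse.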

bulrush (Sc) = assay: as above; assay type: in vivo; conditions: 100 g of the active ingredient per 10 ares, 21st day after the application, index 0-5 of Table 47;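 also: grade of growth control; 5 = at least 90%; 4 = 70 to 90%; 3 = 50 to 70%; 2 = 30 to 50%; 1 = 10 to 30%; 0 = under 10%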
Outline: as §1

monochoria (Mo) = assay: as above; assay type: in vivo; conditions: 100 g of the active ingredient per 10 ares, 21st day after the application, index 0-5 of Table 47;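 also: grade of growth control; 5 = at least 90%; 4 = 70 to 90%; 3 = 50 to 70%; 2 = 30 to 50%; 1 = 10 to 30%; 0 = under 10%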
Outline: as §1

Digitaria ciliaris (Di) = assay: Test Example 2: herbicidal effects by upland field soil treatment; assay type: in vivo; conditions: 100 g of the active ingredient per 10 ares;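 also: grade of growth control; 5 = at least 90%; 4 = 70 to 90%; 3 = 50 to 70%; 2 = 30 to 50%; 1 = 10 to 30%; 0 = under 10%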
From the text: (§2) (Test on Herbicidal Effects by Upland Field Soil Treatment)

barnyardgrass (Ec) [2] = assay: as above; assay type: in vivo; conditions: 100 g of the active ingredient per 10 ares
From the text: as §2

[3] = tested on: common lambsquarters (Ch); assay: as above; assay type: in vivo; conditions: 100 g of the active ingredient per 10 ares
From the text: as §2

pale smartweed (Po) [4] = assay: as above; assay type: in vivo; conditions: 100 g of the active ingredient per 10 ares
From the text: as §2

rice flatsedge (Ci) [5] = assay: as above; assay type: in vivo; conditions: 100 g of the active ingredient per 10 ares
From the text: as §2

slender amaranth (Am) [6] = assay: as above; assay type: in vivo; conditions: 100 g of the active ingredient per 10 ares
From the text: as §2

Diaitaria ciliaris (Di) = assay: Test Example 3: herbicidal effects by upland field foliage treatment; assay type: in vivo; design: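 grade of growth control; 5 = at least 90%; 4 = 70 to 90%; 3 = 50 to 70%; 2 = 30 to 50%; 1 = 10 to 30%; 0 = under 10%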
Outline: (§3)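 Weeds were sown in sand-filled pots (surface area: 120 cm^2), covered with soil and grown in a greenhouse for 2 weeks before foliar treatment. Plants then stayed in the greenhouse, and herbicidal effect was scored against graded standards on the 14th day after treatment.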

barnyardgrass (Ec) [7] = assay: as above; assay type: in vivo; design: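 grade of growth control; 5 = at least 90%; 4 = 70 to 90%; 3 = 50 to 70%; 2 = 30 to 50%; 1 = 10 to 30%; 0 = under 10%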
Outline: as §3

[8] = tested on: common lambsquarters (Ch); assay: as above; assay type: in vivo; design: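 grade of growth control; 5 = at least 90%; 4 = 70 to 90%; 3 = 50 to 70%; 2 = 30 to 50%; 1 = 10 to 30%; 0 = under 10%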
Outline: as §3

pale smartweed (Po) [9] = assay: as above; assay type: in vivo; design: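 grade of growth control; 5 = at least 90%; 4 = 70 to 90%; 3 = 50 to 70%; 2 = 30 to 50%; 1 = 10 to 30%; 0 = under 10%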
Outline: as §3

rice flatsedge (Ci) [10] = assay: as above; assay type: in vivo; design: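 grade of growth control; 5 = at least 90%; 4 = 70 to 90%; 3 = 50 to 70%; 2 = 30 to 50%; 1 = 10 to 30%; 0 = under 10%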
Outline: as §3

slender amaranth (Am) [11] = assay: as above; assay type: in vivo; design: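 grade of growth control; 5 = at least 90%; 4 = 70 to 90%; 3 = 50 to 70%; 2 = 30 to 50%; 1 = 10 to 30%; 0 = under 10%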
Outline: as §3

wheat (Tr) = assay: Test Example 9: crop plant selectivity by upland field foliage treatment (wheat), phytotoxicity; conditions: dose 1.6 g ai/10a, 14th day after treatment
Procedure: (§4) (Test on Crop Plant Selectivity by Upland Field Foliage Treatment)
(§5) In a plastic pot (surface area: 600 cm^2) filled with sand, wheat (Tr), pale smartweed (Po), slender amaranth (Am), common lambsquarters (Ch) and China jute (Ab) were sown and cultured in a green house for 2 weeks. […] The plants were then cultured in a green house, and the evaluation of the herbicidal effects and phytotoxicity was conducted on the 14th day after the treatment in accordance with the standards as identified in Table 47.

China jute (Ab) = assay: Test Example 9: crop plant selectivity by upland field foliage treatment (wheat), herbicidal effects; assay type: in vivo; design: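 grade of growth control; 5 = at least 90%; 4 = 70 to 90%; 3 = 50 to 70%; 2 = 30 to 50%; 1 = 10 to 30%; 0 = under 10%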; conditions: dose 1.6 g ai/10a, 14th day after treatment
Procedure: as §4, §5

[12] = tested on: common lambsquarters (Ch); assay: as above; assay type: in vivo; design: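 grade of growth control; 5 = at least 90%; 4 = 70 to 90%; 3 = 50 to 70%; 2 = 30 to 50%; 1 = 10 to 30%; 0 = under 10%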; conditions: dose 1.6 g ai/10a, 14th day after treatment
Procedure: as §4, §5

pale smartweed (Po) [13] = assay: as above; assay type: in vivo; design: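 grade of growth control; 5 = at least 90%; 4 = 70 to 90%; 3 = 50 to 70%; 2 = 30 to 50%; 1 = 10 to 30%; 0 = under 10%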; conditions: dose 1.6 g ai/10a, 14th day after treatment
Procedure: as §4, §5

slender amaranth (Am) [14] = assay: as above; assay type: in vivo; design: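 grade of growth control; 5 = at least 90%; 4 = 70 to 90%; 3 = 50 to 70%; 2 = 30 to 50%; 1 = 10 to 30%; 0 = under 10%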; conditions: dose 1.6 g ai/10a, 14th day after treatment
Procedure: as §4, §5

[15] = 21st day after the application, index 0-5 of Table 47
[16] = 100 g of the active ingredient per 10 ares, evaluated on the 14th day after treatment
[17] = evaluated on the 21st day after application
[18] = 100 g active ingredient per 10 ares, evaluated 14th day after treatment

| Structure (SMILES) | Herbicidal effects Ec (barnyardgrass (Ec) [1]) | Herbicidal effects Sc (bulrush (Sc)) | Herbicidal effects Mo (monochoria (Mo)) | Herbicidal effects Di (Diaitaria ciliaris (Di); [16]) | Herbicidal effects Ec (barnyardgrass (Ec) [7]; [16]) | Herbicidal effects Ch [8, 16] | Herbicidal effects Po (pale smartweed (Po) [9]; [16]) | Herbicidal effects Ci (rice flatsedge (Ci) [10]; [16]) | Herbicidal effects Di (Digitaria ciliaris (Di); [17]) | Herbicidal effects Ec (barnyardgrass (Ec) [2]; [17]) | Herbicidal effects Ch [3, 17] | Herbicidal effects Po (pale smartweed (Po) [4]; [17]) | Herbicidal effects Ci (rice flatsedge (Ci) [5]; [17]) | Herbicidal effects Am (slender amaranth (Am) [6]; [17]) | Herbicidal effects Di (Diaitaria ciliaris (Di); [18]) | Herbicidal effects Ec (barnyardgrass (Ec) [7]; [18]) | Herbicidal effects Ch [8, 18] | Herbicidal effects Po (pale smartweed (Po) [9]; [18]) | Herbicidal effects Ci (rice flatsedge (Ci) [10]; [18]) | Herbicidal effects Am (slender amaranth (Am) [11]; [18]) | also measured |
| --- | --- | --- | --- | --- | --- | --- | --- | --- | --- | --- | --- | --- | --- | --- | --- | --- | --- | --- | --- | --- | --- |
| CCCCCOC(=O)COc1cc(-c2ccc(C(F)(F)F)n(C)c2=O)c(F)cc1Cl [1-20] | 5 | 5 | 5 | 5 | 5 | 5 | 5 | 5 | – | – | – | – | – | – | – | – | – | – | – | – | Herbicidal effects Di (Digitaria ciliaris (Di); [15]): 5; Herbicidal effects Ec (barnyardgrass (Ec) [2]; [15]): 5; Herbicidal effects Ch [3, 15]: 5; Herbicidal effects Po (pale smartweed (Po) [4]; [15]): 5; Herbicidal effects Ci (rice flatsedge (Ci) [5]; [15]): 5; Herbicidal effects Am (slender amaranth (Am) [6]; [15]): 5; Herbicidal effects Am (slender amaranth (Am) [11]; [16]): 5; Phytotoxicity Tr (wheat (Tr)): 2; Herbicidal effects Ab (China jute (Ab)): 5; Herbicidal effects Ch [12]: 5; Herbicidal effects Po (pale smartweed (Po) [13]): 5; Herbicidal effects Am (slender amaranth (Am) [14]): 5 |
| CCCC(Sc1cc(-c2ccc(C(F)(F)F)n(C)c2=O)c(F)cc1Cl)C(=O)OCC (stereo not drawn) [1-48] | 5 | 5 | 5 | 5 | 5 | 5 | 5 | 5 | – | – | – | – | – | – | – | – | – | – | – | – | Herbicidal effects Am (slender amaranth (Am) [11]; [16]): 5; Phytotoxicity Tr (wheat (Tr)): 2; Herbicidal effects Ab (China jute (Ab)): 5; Herbicidal effects Ch [12]: 5; Herbicidal effects Po (pale smartweed (Po) [13]): 5; Herbicidal effects Am (slender amaranth (Am) [14]): 5 |
| CCCOC(=O)c1cc(-c2ccc(C(F)(F)F)n(C)c2=O)c(F)cc1Cl [1-158] | 5 | 5 | 5 | 5 | 5 | 5 | 5 | 5 | – | – | – | – | – | – | – | – | – | – | – | – | Herbicidal effects Di (Digitaria ciliaris (Di); [15]): 5; Herbicidal effects Ec (barnyardgrass (Ec) [2]; [15]): 5; Herbicidal effects Ch [3, 15]: 5; Herbicidal effects Po (pale smartweed (Po) [4]; [15]): 5; Herbicidal effects Ci (rice flatsedge (Ci) [5]; [15]): 5; Herbicidal effects Am (slender amaranth (Am) [6]; [15]): 5; Herbicidal effects Am (slender amaranth (Am) [11]; [16]): 5; Phytotoxicity Tr (wheat (Tr)): 2; Herbicidal effects Ab (China jute (Ab)): 5; Herbicidal effects Ch [12]: 5; Herbicidal effects Po (pale smartweed (Po) [13]): 5; Herbicidal effects Am (slender amaranth (Am) [14]): 5 |
| CN1C(=O)COc2cc(F)c(-c3ccc(C(F)(F)F)n(C)c3=O)cc21 [Compound 2-16] | 5 | 5 | 5 | – | – | – | – | – | 5 | 5 | 5 | 5 | 5 | 5 | 5 | 5 | 5 | 5 | 5 | 5 | – |
| Cc1cc2c(-c3ccc(C(F)(F)F)n(C)c3=O)c(Cl)cc(Cl)c2o1 [Compound 4-10] | 5 | 5 | 5 | – | – | – | – | – | 5 | 5 | 5 | 5 | 5 | 5 | 5 | 5 | 5 | 5 | 5 | 5 | – |
| Cn1c(C(F)(F)F)ccc(-c2c(Cl)cc(Cl)c3oc(CBr)cc23)c1=O [Compound 4-16] | 5 | 5 | 5 | – | – | – | – | – | 5 | 5 | 5 | 5 | 5 | 5 | 5 | 5 | 5 | 5 | 5 | 5 | – |
| Cc1cc2c(-c3ccc(C(F)(F)F)n(C)c3=O)ccc(Cl)c2o1 [Compound 4-24] | 5 | 5 | 5 | – | – | – | – | – | 5 | 4 | 5 | 5 | 5 | 5 | 5 | 4 | 5 | 5 | 5 | 5 | – |
| Cn1c(C(F)(F)F)ccc(-c2c(Cl)cc(Cl)c3oc(C(Br)Br)cc23)c1=O [Compound 4-29] | 5 | 5 | 5 | – | – | – | – | – | 5 | 5 | 5 | 5 | 5 | 5 | 5 | 5 | 5 | 5 | 5 | 5 | – |
| CCOCc1cc2c(-c3ccc(C(F)(F)F)n(C)c3=O)c(F)cc(Cl)c2o1 [Compound 4-31] | 5 | 5 | 5 | – | – | – | – | – | 5 | 5 | 5 | 5 | 5 | 5 | 5 | 5 | 5 | 5 | 5 | 5 | – |
| COC(C)c1cc2c(-c3ccc(C(F)(F)F)n(C)c3=O)c(F)cc(Cl)c2o1 (stereo not drawn) [Compound 4-35] | – | – | – | – | – | – | – | – | 5 | 5 | 5 | 5 | 5 | 5 | 5 | 5 | 5 | 5 | 5 | 5 | Phytotoxicity Tr (wheat (Tr)): 2; Herbicidal effects Ab (China jute (Ab)): 5; Herbicidal effects Ch [12]: 5; Herbicidal effects Po (pale smartweed (Po) [13]): 5; Herbicidal effects Am (slender amaranth (Am) [14]): 5 |
| CCOC(C)c1cc2c(-c3ccc(C(F)(F)F)n(C)c3=O)c(F)cc(Cl)c2o1 (stereo not drawn) [Compound 4-36] | – | – | – | – | – | – | – | – | 5 | 5 | 5 | 5 | 5 | 5 | 5 | 5 | 5 | 5 | 5 | 5 | Phytotoxicity Tr (wheat (Tr)): 2; Herbicidal effects Ab (China jute (Ab)): 5; Herbicidal effects Ch [12]: 5; Herbicidal effects Po (pale smartweed (Po) [13]): 5; Herbicidal effects Am (slender amaranth (Am) [14]): 5 |
| CCC(OC)c1cc2c(-c3ccc(C(F)(F)F)n(C)c3=O)c(F)cc(Cl)c2o1 (stereo not drawn) [Compound 4-39] | – | – | – | – | – | – | – | – | – | – | – | – | – | – | – | – | – | – | – | – | Phytotoxicity Tr (wheat (Tr)): 2; Herbicidal effects Ab (China jute (Ab)): 5; Herbicidal effects Ch [12]: 5; Herbicidal effects Po (pale smartweed (Po) [13]): 5; Herbicidal effects Am (slender amaranth (Am) [14]): 5 |
| C=CCOc1cc(-c2cn(C)c(C(F)(F)F)cc2=O)c(F)cc1Cl [Compound 6-8] | 5 | 5 | 5 | – | – | – | – | – | 5 | 5 | 5 | 5 | 5 | 5 | 5 | 5 | 5 | 5 | 5 | 5 | – |
| Cc1cc(-c2ccc(Cl)cc2Cl)c(=O)n(C)c1C(F)(F)F [Compound No. 1-11] | 5 | 5 | 5 | 5 | 5 | 5 | 5 | 5 | – | – | – | – | – | – | – | – | – | – | – | – | Herbicidal effects Di (Digitaria ciliaris (Di); [15]): 5; Herbicidal effects Ec (barnyardgrass (Ec) [2]; [15]): 5; Herbicidal effects Ch [3, 15]: 5; Herbicidal effects Po (pale smartweed (Po) [4]; [15]): 5; Herbicidal effects Ci (rice flatsedge (Ci) [5]; [15]): 5; Herbicidal effects Am (slender amaranth (Am) [6]; [15]): 5; Herbicidal effects Am (slender amaranth (Am) [11]; [16]): 5 |
| Cn1c(C(F)(F)F)ccc(-c2cc(C=O)c(Cl)cc2F)c1=O [Compound No. 1-81, 5-[1--methyl-6-trifluoromethyl-2(1H)-pyridon-3-yl]-2-chloro-4-fluorobenzaldehyde] | 5 | 5 | 5 | 5 | 5 | 5 | 5 | 5 | – | – | – | – | – | – | – | – | – | – | – | – | Herbicidal effects Di (Digitaria ciliaris (Di); [15]): 5; Herbicidal effects Ec (barnyardgrass (Ec) [2]; [15]): 5; Herbicidal effects Ch [3, 15]: 5; Herbicidal effects Po (pale smartweed (Po) [4]; [15]): 5; Herbicidal effects Ci (rice flatsedge (Ci) [5]; [15]): 5; Herbicidal effects Am (slender amaranth (Am) [6]; [15]): 5; Herbicidal effects Am (slender amaranth (Am) [11]; [16]): 5 |
| Cn1c(C(F)(F)F)ccc(-c2cc(C(=O)O)c(Cl)cc2F)c1=O [Compound No. 1-141, 5-(1-methyl-6-trifluoromethyl-2(1H)-pyridon-3-yl)-2-chloro-4-fluorobenzoic acid] | 5 | 5 | 5 | 5 | 5 | 5 | 5 | 5 | – | – | – | – | – | – | – | – | – | – | – | – | Herbicidal effects Di (Digitaria ciliaris (Di); [15]): 5; Herbicidal effects Ec (barnyardgrass (Ec) [2]; [15]): 4; Herbicidal effects Ch [3, 15]: 5; Herbicidal effects Po (pale smartweed (Po) [4]; [15]): 5; Herbicidal effects Ci (rice flatsedge (Ci) [5]; [15]): 5; Herbicidal effects Am (slender amaranth (Am) [6]; [15]): 5; Herbicidal effects Am (slender amaranth (Am) [11]; [16]): 5 |

Source: patent US6472348B1, “Pyridone derivatives and herbicides” (Kumiai Chemical Industry Co., Ltd., priority 1996, dated 2002)
